Results as given in patent US20120093752A1, “Use of Monoamine Oxidase Inhibitors to Improve Epithelial Biology” (priority 2010, published 2012).
Entries after “also recorded” stand apart in the source; their conditions may differ. Counter-ions that a name gives are not always drawn.

Tests used:
MAOB = MAOB production in mice administered hair growth modulators; assay type: in vivo
follicles in telogen [1] = assay: Telogen Conversion Assay (TCA), visual melanogenesis grade as indicator of hair growth; assay type: in vivo, C57Bl/6 mice; settings: topical; for hair growth induction in vivo (FIG. 1): compound alone; for hair growth induction in vivo (FIG. 1) / Activity (improved hair growth by inducing anagen): 19 days, C57Bl/6 mice; for timing of hair growth induction: C57BL/6 mice, selegiline 1% or Triac 0.06%, 32 days, FIG. 2
Procedure: The skin color of mice subjected to treatment is graded visually on a scale from zero to four (0=white skin; 1=light gray skin; 2=blue/black spots; 3=large blue/black region; 4=mostly blue/black skin). As a subject transitions from telogen to anagen, the skin color becomes darker.
Triac (0.06%) was administered as a positive control. Animals were scored for hair growth on the basis of melanogenesis during the treatment period.

follicles in telogen [2] = assay: Hair growth induction (visual melanogenesis grades) in C3H mice; assay type: in vivo; settings: topical, selegiline 1% or Triac 0.06%, 32 days
Procedure: Several MAO inhibitors were tested for the ability to improve hair growth using the Telogen Conversion Assay (TCA) described in, e.g., International Patent Publication No. 2000/73265. […] The skin color of mice subjected to treatment is graded visually on a scale from zero to four (0=white skin; 1=light gray skin; 2=blue/black spots; 3=large blue/black region; 4=mostly blue/black skin). As a subject transitions from telogen to anagen, the skin color becomes darker.
The potential of selegiline to induce hair growth in different mouse strains also was studied. Selegiline (1%) was topically administered to a C3H mice and C57BL/6 mice. Triac (0.06%) was used as a positive control. […] Both strains of mice also responded to the MAO inhibitor; however, the strains responded in a manner consistent with natural inter-strain differences in transitioning to anagen. The telogen phase in C3H mice is longer than telogen in C57BL/6 mice.

C[C@]12CCC(=O)C[C@@H]1CC[C@@H]1[C@@H]2CC[C@]2(C)[C@@H](O)CC[C@@H]12 [DHT, dihydrotestosterone]
MAOB levels (MAOB; C57Bl/6 mice, 12.5 mg/day subcutaneous continuous release pellet): increased greater than two fold

C#CCN(C)CCCOc1ccc(Cl)cc1Cl [Clorgiline]
hair growth induction in vivo (FIG. 1) (follicles in telogen [1]): induced significant hair growth
Activity (improved hair growth by inducing anagen) (follicles in telogen [1]; dose 1%): YES

NCCNC(=O)c1ccc(Cl)cn1 [Lazabemide]
hair growth induction in vivo (FIG. 1) (follicles in telogen [1]): not shown to induce hair growth alone

C#CCN[C@@H]1CCc2ccccc21 [Rasagiline mesylate]
hair growth induction in vivo (FIG. 1) (follicles in telogen [1]): Robust hair growth induction
Activity (improved hair growth by inducing anagen) (follicles in telogen [1]; dose 1%): YES

NNCCc1ccccc1 [Phenelzine]
hair growth induction in vivo (FIG. 1) (follicles in telogen [1]): induced significant hair growth
Activity (improved hair growth by inducing anagen) (follicles in telogen [1]; dose 0.5%): YES

O=C(O)Cc1cc(I)c(Oc2ccc(O)c(I)c2)c(I)c1 [Triac, Triiodothyroacetic Acid]
MAOB levels (MAOB; C3H mice, 0.06%): Reduced MAOB levels
timing of hair growth induction (follicles in telogen [1]): hair growth was induced at the same time for both mouse strains; also recorded: induced hair growth simultaneously
timing of hair growth induction (follicles in telogen [2]; FIG. 2): hair growth was induced at the same time for both mouse strains; also recorded: induced hair growth simultaneously

C#CCN(C)[C@H](C)Cc1ccccc1 [Selegiline Hydrochloride]
timing of hair growth induction (follicles in telogen [1]; Hydrochloride): induced hair regrowth significantly earlier; also recorded: initiated hair growth significantly sooner than treatment with vehicle
hair growth induction in vivo (FIG. 1) (follicles in telogen [1]): Robust hair growth induction
Activity (improved hair growth by inducing anagen) (follicles in telogen [1]; dose 1%): YES
timing of hair growth induction (follicles in telogen [2]; FIG. 2, Hydrochloride): induced hair regrowth significantly earlier; also recorded: initiated hair growth significantly sooner than treatment with vehicle

C#CCN(C)Cc1ccccc1 [Pargyline HCL]
hair growth induction in vivo (FIG. 1) (follicles in telogen [1]): induced significant hair growth
Activity (improved hair growth by inducing anagen) (follicles in telogen [1]; dose 1%): YES
